Results on 16 compounds are retold here after patent publication US20110207726A1, “Inhibitors of Human Cathepsin L, Cathepsin B, and Cathepsin S” (The Trustees of the University of Pennsylvania, priority 2008, published 2011).

Read-outs that look alike come from different tables or passages of the source. Where only a bound is given, the exact number is not on record here.

Holding throughout (assay type): biochemical
One assay concerns the target T1, Human spleen cathepsin S (Homo sapiens, UniProt P25774).
T1 construct: Human spleen cathepsin S (Calbiochem 219344, 40 ng/mL); purchased Calbiochem 219344; host or cells: human spleen
Put plainly: Cathepsin S assay, IC50 determination. The procedure: (§1) Human spleen cathepsin S (Calbiochem 219344, 40 ng/mL) was assayed using 15 microM Z-Phe-Arg-AMC substrate. Human liver cathepsin B (Calbiochem 219362, 65 ng/mL) was assayed using 15 microM Z-Arg-Arg-AMC substrate (Bachem I-1135). All reactions were performed in 20 mM sodium acetate buffer containing 1 mM EDTA and 5 mM cysteine, pH 5.5.
(§2) Compounds were serially diluted in DMSO and transferred into a 96-well Corning 3686 assay microplate to give a 16-point two-fold serial dilution dose response ranging from 25 microM to 760 pM. Human liver cathepsin L (Calbiochem 219402) was activated by incubating with assay buffer for 30 min. Upon activation, cathepsin L (300 pM, 8.7 ng/mL) was incubated with 1 microM Z-Phe-Arg-AMC substrate (Sigma C9521) and test compound in […] of assay buffer for 1 hour at room temperature. Fluorescence of AMC released by enzyme-catalyzed hydrolysis of Z-Phe-Arg-AMC was read on a PerkinElmer Envision microplate reader (excitation 355 nm, emission 460 nm). Data were scaled using internal controls and fitted to a four-parameter logistic model (IDBS XLfit equation 205) to obtain IC50 values in triplicate.
(§3) Compound No. 1 was assayed for inhibition against papain and cathepsins B, G, K, S, and V. Papain from Carica papaya (Calbiochem 5125, 11 ng/mL), human cathepsin K (Calbiochem 342001, 35 ng/mL), human spleen cathepsin S (Calbiochem 219344, 40 ng/mL), and human cathepsin V (Calbiochem 219467, 39 ng/ml) were assayed using Z-Phe-Arg-AMC substrate at 20 μM, 20 μM, 15 μM, and 1 μM, respectively. Human liver cathepsin B (Calbiochem 219362, 65 ng/mL) was assayed using 15 μM Z-Arg-Arg-AMC substrate (Bachem I-1135). Human neutrophil cathepsin G (Calbiochem 219373, 4.2 μg/mL) was assayed using 15 μM Suc-Ala-Ala-Pro-Phe-AMC substrate (Sigma S9761). All reactions were performed in 20 mM sodium acetate buffer containing 5 mM cysteine and 1 mM EDTA, pH 5.5. Reaction progress was monitored using the Envision microplate reader. IC50 values were measured in triplicate.

The target of the next assay is T2, human liver cathepsin L (Homo sapiens, UniProt P07711).
T2 construct: 8.7 ng/mL human liver cathepsin L (Calbiochem 219402); purchased Calbiochem 219402; host or cells: human liver
The assay can be described thus: Cathepsin L assay, IC50 determination. The procedure:
Assay buffer consisted of 20 mM sodium acetate, 1 mM ethylenediaminetetraacetic acid (EDTA) and 5 mM cysteine, pH 5.5. Cathepsin L was incubated in assay buffer for 30 minutes prior to dispensing into wells to allow for efficient reduction of the active site cysteine required for full enzymatic activity.
Upon activation, cathepsin L (300 pM, 8.7 ng/mL) was incubated with 1 microM Z-Phe-Arg-AMC substrate (Sigma C9521) and test compound in […] of assay buffer for 1 hour at room temperature.
All reactions were performed in 20 mM sodium acetate buffer containing 5 mM cysteine and 1 mM EDTA, pH 5.5. Reaction progress was monitored using the Envision microplate reader. IC50 values were measured in triplicate.

The target in another assay is T3, Human liver cathepsin B (Homo sapiens, UniProt P07858).
T3 construct: Human liver cathepsin B (Calbiochem 219362, 65 ng/mL); purchased Calbiochem 219362; host or cells: human liver
Put plainly: Cathepsin B assay, IC50 determination. The procedure:
as §1, §2, §3

T2 sequence (P07711 114-288 limits assumed): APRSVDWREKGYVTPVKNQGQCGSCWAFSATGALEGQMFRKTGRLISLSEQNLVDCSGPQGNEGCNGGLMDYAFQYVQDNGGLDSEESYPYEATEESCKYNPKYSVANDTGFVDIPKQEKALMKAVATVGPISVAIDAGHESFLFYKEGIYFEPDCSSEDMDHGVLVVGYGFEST
T2 sequence (P07711 292-333 limits assumed): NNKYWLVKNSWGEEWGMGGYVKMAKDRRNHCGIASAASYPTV
T1 sequence (P25774 115-331): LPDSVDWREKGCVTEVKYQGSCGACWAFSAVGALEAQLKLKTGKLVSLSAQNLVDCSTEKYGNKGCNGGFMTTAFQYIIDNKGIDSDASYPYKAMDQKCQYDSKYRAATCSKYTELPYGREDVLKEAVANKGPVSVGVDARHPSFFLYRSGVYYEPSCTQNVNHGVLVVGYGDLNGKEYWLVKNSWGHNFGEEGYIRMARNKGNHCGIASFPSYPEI

`O=C(CCc1c[nH]c2ccccc12)NNC(=O)CCc1c[nH]c2ccccc12` [Compound No. 114]: the IC50 at Human spleen cathepsin S (Tables 2-11, read-out: Cat S) is no less than 25 µM; at human liver cathepsin L (Tables 2-11, read-out: Cat L) it was no less than 25 µM; at Human liver cathepsin B (Tables 2-11, read-out: Cat B), no less than 25 µM.
On to `CC(C)(C)OC(=O)N[C@@H](Cc1c[nH]c2ccccc12)C(=O)NN` [Compound No. 118], for which the IC50 is no less than 25 µM on Human spleen cathepsin S (Tables 2-11, read-out: Cat S); no less than 25 µM at human liver cathepsin L (Tables 2-11, read-out: Cat L); no less than 25 µM at Human liver cathepsin B (Tables 2-11, read-out: Cat B).
With `CC(C)(C)OC(=O)N[C@@H](COCc1ccccc1)C(=O)NNC(=O)SCC(=O)NCCc1c[nH]c2ccccc12` [Compound No. 53], the IC50 at Human spleen cathepsin S (Table 1, read-out: IC50 Cat S) is 0.92 µM; on human liver cathepsin L (Table 1, read-out: IC50 Cat L), 0.38 µM; at Human liver cathepsin B (Table 1, read-out: IC50 Cat B), greater than 25 µM.
As to `CCc1ccccc1NC(=O)CSC(=O)NNC(=O)[C@@H](COCc1ccccc1)NC(=O)OC(C)(C)C` [Compound No. 48], the IC50 is 4.42 µM at Human spleen cathepsin S (Table 1, read-out: IC50 Cat S); 15.4 µM at human liver cathepsin L (Table 1, read-out: IC50 Cat L); greater than 25 µM on Human liver cathepsin B (Table 1, read-out: IC50 Cat B).
On the same counts, the results for `CC(C)(C)OC(=O)N[C@@H](Cc1ccc(OCc2ccccc2)cc1)C(=O)NNC(=O)SCC(=O)N1CCc2ccccc2C1` [Compound No. 39] are 1.31 µM, 0.086 µM and 3.19 µM.
For the compound `CC(C)(C)OC(=O)N[C@H](Cc1c[nH]c2ccccc12)C(=O)NN` [Compound No. 119], the IC50 is no less than 25 µM at Human spleen cathepsin S (Tables 2-11, read-out: Cat S); no less than 25 µM at human liver cathepsin L (Tables 2-11, read-out: Cat L); no less than 25 µM on Human liver cathepsin B (Tables 2-11, read-out: Cat B).
On to `CCc1ccccc1NC(=O)CSC(=O)NNC(=O)C[C@H](CCSC)NC(=O)OC(C)(C)C` [Compound No. 76], for which the IC50 on Human spleen cathepsin S (Table 1, read-out: IC50 Cat S) is 2.41 µM; at human liver cathepsin L (Table 1, read-out: IC50 Cat L), 5.52 µM; on Human liver cathepsin B (Table 1, read-out: IC50 Cat B) it was greater than 25 µM.
The corresponding values for `CC(C)C[C@H](NC(=O)OC(C)(C)C)C(=O)NNC(=O)SCC(=O)N1CCCc2ccccc21` [Compound No. 31] are 1.64 µM, 1.64 µM and 2.72 µM.
Turning to `CC(C)(C)OC(=O)N[C@@H](Cc1c[nH]c2ccccc12)C(=O)NNC(=O)NCC(=O)N1CCCc2ccccc21` [Compound No. 125], the IC50 on Human spleen cathepsin S (Tables 2-11, read-out: Cat S) is 13 µM; on human liver cathepsin L (Tables 2-11, read-out: Cat L), 2.34 µM; on Human liver cathepsin B (Tables 2-11, read-out: Cat B) it was no less than 25 µM.
As to `CCc1ccccc1NC(=O)CSC(=O)NNC(=O)C[C@@H]1CCCN1C(=O)OC(C)(C)C` [Compound No. 80], the IC50 at Human spleen cathepsin S (Table 1, read-out: IC50 Cat S) is greater than 25 µM; at human liver cathepsin L (Table 1, read-out: IC50 Cat L), greater than 25 µM; at Human liver cathepsin B (Table 1, read-out: IC50 Cat B) it was greater than 25 µM.
As to `CCOC(=O)c1ccc(NC(=O)CSC(=O)NNC(=O)[C@H](Cc2ccc(OCc3ccccc3)cc2)NC(=O)OC(C)(C)C)cc1` [Compound No. 43], the IC50 on Human spleen cathepsin S (Table 1, read-out: IC50 Cat S) is 1.08 µM; at human liver cathepsin L (Table 1, read-out: IC50 Cat L), 0.14 µM; on Human liver cathepsin B (Table 1, read-out: IC50 Cat B), greater than 25 µM.
In the case of `CSCC[C@H](NC(=O)OC(C)(C)C)C(=O)NNC(=O)SCC(=O)NCCc1c[nH]c2ccccc12` [Compound No. 20], the IC50 on Human spleen cathepsin S (Table 1, read-out: IC50 Cat S) is 0.31 µM; on human liver cathepsin L (Table 1, read-out: IC50 Cat L) it was 0.33 µM; on Human liver cathepsin B (Table 1, read-out: IC50 Cat B), 2.42 µM.
On the same counts, the results for `CCc1ccccc1NC(=O)CSC(=O)NNC(=O)[C@H](C)CO` [Compound No. 67] are greater than 25 µM, greater than 25 µM and greater than 25 µM.
With `CC(C)[C@H](NC(=O)OC(C)(C)C)C(=O)NNC(=O)SCC(=O)Nc1ccc2c(c1)CCCC2` [Compound No. 24], the IC50 at Human spleen cathepsin S (Table 1, read-out: IC50 Cat S) was 0.62 µM; at human liver cathepsin L (Table 1, read-out: IC50 Cat L), 0.11 µM; at Human liver cathepsin B (Table 1, read-out: IC50 Cat B) it was greater than 25 µM.
On to `CCc1ccccc1NC(=O)CSC(=O)NNC(=O)[C@H](CCCNC(=N)N[N+](=O)[O-])NC(=O)OC(C)(C)C` [Compound No. 62], for which the IC50 was 2.15 µM at Human spleen cathepsin S (Table 1, read-out: IC50 Cat S); 3.67 µM at human liver cathepsin L (Table 1, read-out: IC50 Cat L); greater than 25 µM at Human liver cathepsin B (Table 1, read-out: IC50 Cat B).
The corresponding values for `C[C@H](CO)C(=O)NNC(=O)SCC(=O)N1CCCc2ccccc21` [Compound No. 68] are greater than 25 µM, greater than 25 µM and greater than 25 µM.
